# Test results as given in patent US20250032524A1, “BROAD SPECTRUM AMINOGLYCOSIDES AND USES THEREOF” (REVAGENIX, INC., priority 2022, published 2025).
# Where two headings read alike, the source gives them in different places.
# How the values were obtained:
# Format in all cases: cell-based
# [1] = system: clinical isolates of multi-drug resistant bacterial pathogens including A. baumannii, MRSA, P. aeruginosa, and CRE; assay: MIC secondary panel, overall statement; settings: read-out: minimum inhibitory concentration (MIC) values
# Method: (§1) Minimum inhibitory concentrations for representative example compounds herein were determined by a broth microdilution method in accordance with the Clinical and Laboratory Standards Institute (CLSI) guidelines. In brief, organism suspensions were adjusted to a 0.5 McFarland standard to yield a final inoculum between 3×10^5 and 7×10^5 colony-forming units (CFU)/mL. The inoculum was prepared by suspension of a colony from an agar plate that was prepared the previous day. Compound dilutions and inoculum were prepared in sterile, cation adjusted Mueller-Hinton Broth (Beckton Dickinson).
# (§2) Bacteria were suspended in sterile saline and added to each assay plate to obtain a final concentration of 5×10^5 CFU/mL. An inoculum volume of 100 μL was added to wells containing 100 μL of broth with 2-fold serial dilutions of the test compound. All inoculated microdilution trays were incubated in ambient air at 35° C. for 18-24 hours. Following incubation, the lowest concentration of the compound that prevented visible growth (OD 600 nm<0.05) is recorded was the MIC. […] Performance of the assay was monitored by the use of laboratory quality-control strains and a standard compound with a defined MIC spectrum (neomycin), in accordance with CLSI guidelines.
# Several compounds of the disclosure (Compounds 1, 2, 3, and 6) were further evaluated against a secondary panel of clinical isolates of multi-drug resistant bacterial pathogens including A. baumannii, methicillin-resistant Staphylococcus aureus (MRSA), P. aeruginosa, and carbapenem-resistant Enterobacteriaceae (CRE).
# K. aerogenes = assay: MIC broth microdilution (CLSI); settings: Klebsiella aerogenes; strain AEAE1042, MDR Clinical isolate (CDC CRE panel), CDC AR Bank 0161
# Method: as §1, §2
# K. pneumoniae = assay: MIC broth microdilution (CLSI)
# Method: as §1, §2
# P. aeruginosa = assay: MIC broth microdilution (CLSI); settings: Pseudomonas aeruginosa
# Method: as §1, §2
# C. freundii = assay: MIC broth microdilution (CLSI); settings: Citrobacter freundii, read-out: Activity (MIC)
# Method: as §1, §2
# E. coli = assay: MIC broth microdilution (CLSI); settings: Escherichia coli
# Method: as §1, §2
# P. mirabilis = assay: MIC broth microdilution (CLSI); settings: Proteus mirabilis; strain APMI1048, MDR Clinical isolate (CDC CRE panel), CDC AR Bank 0159
# Method: as §1, §2
compound,measurement,setting,value
"C[C@H](N)[C@@H]1CC[C@@H](N)[C@@H](O[C@@H]2[C@@H](N)[C@H](O)[C@@H](NC(=O)[C@@H](O)CCN)[C@H](O)[C@H]2O[C@@H]2O[C@H](CO)[C@@H](O[C@H]3O[C@@H](CN)[C@@H](O)[C@H](O)[C@H]3N)[C@H]2O)O1 [Compound 6, (S)-4-Amino-N-((1R,2S,3S,4R,5R,6S)-3-Amino-4-(((2R,3R,6S)-3-Amino-6-((S)-1-Aminoethyl)Tetrahydro-2H-Pyran-2-Yl)Oxy)-5-(((2S,3R,4S,5R)-4-(((2R,3R,4R,5S,6S)-3-Amino-6-(Aminomethyl)-4,5-Dihydroxytetrahydro-2H-Pyran-2-Yl)Oxy)-3-Hydroxy-5-(Hydroxymethyl)Tetrahydrofuran-2-Yl)Oxy)-2,6-Dihydroxycyclohexyl)-2-Hydroxybutanamide]",MIC,[1],≤ 16 µg/mL
same,MIC,K. aerogenes,< 16 µg/mL
same,MIC,"K. pneumoniae; Klebsiella pneumoniae, strain AKPN1246, MDR Clinical isolate (CDC CRE panel), CDC AR Bank 0139",< 16 µg/mL
same,Activity (MIC),"K. pneumoniae; strain AKPN1250, MDR Clinical isolate (CDC CRE panel), CDC AR Bank 0143",+ (MIC threshold for positive activity (+) is ≤16 μg/mL)
same,Activity (MIC),"K. pneumoniae; strain AKPN1253, MDR Clinical isolate (CDC CRE panel), CDC AR Bank 0148",+ (MIC threshold for positive activity (+) is ≤16 μg/mL)
same,Activity (MIC),"K. pneumoniae; strain AKPN1255, MDR Clinical isolate (CDC CRE panel), CDC AR Bank 0153",+ (MIC threshold for positive activity (+) is ≤16 μg/mL)
same,MIC,"P. aeruginosa; read-out: Activity (MIC), strain NPAE0006, Efflux KO, Aph(3')-IIb",< 16 µg/mL
same,MIC,"P. aeruginosa; read-out: Activity (MIC), strain NPAE0010, MexXY over-expressed, Aph(3')-IIb",< 16 µg/mL
same,MIC,"P. aeruginosa; read-out: Activity (MIC), strain NPAE1288, MDR Clinical isolate",< 16 µg/mL
same,MIC,"P. aeruginosa; read-out: Activity (MIC), strain NPAE1293, MDR Clinical isolate",< 16 µg/mL
same,MIC,"P. aeruginosa; read-out: Activity (MIC), strain NPAE1299, MDR Clinical isolate",< 16 µg/mL
same,MIC,"P. aeruginosa; read-out: Activity (MIC), strain NPAE1302, MDR Clinical isolate",< 16 µg/mL
same,MIC,"P. aeruginosa; read-out: Activity (MIC), strain NPAE1303, MDR Clinical isolate",< 16 µg/mL
same,MIC,"P. aeruginosa; read-out: Activity (MIC), strain NPAE1308, MDR Clinical isolate",> 16 µg/mL
same,MIC,"P. aeruginosa; read-out: Activity (MIC), strain NPAE1310, MDR Clinical isolate",< 16 µg/mL
same,MIC,"P. aeruginosa; read-out: Activity (MIC), strain NPAE1313, MDR Clinical isolate",< 16 µg/mL
same,MIC,"P. aeruginosa; read-out: Activity (MIC), strain NPAE1316, MDR Clinical isolate",< 16 µg/mL
same,MIC,"P. aeruginosa; read-out: Activity (MIC), strain NPAE1323, MDR Clinical isolate",< 16 µg/mL
same,MIC,"P. aeruginosa; strain NPAE0001, WT Aph(3')-IIb, QC, read-out: Activity (MIC)",< 16 µg/mL
same,MIC,"P. aeruginosa; strain NPAE0002, WT Aph(3')-IIb, read-out: Activity (MIC)",< 16 µg/mL
same,MIC,"P. aeruginosa; strain NPAE0359, aph(3')-IIb KO (tetR), read-out: Activity (MIC)",< 16 µg/mL
same,MIC,C. freundii,< 16 µg/mL
same,MIC,"E. coli; read-out: Activity (MIC), strain AECO1225, MDR Clinical isolate (CDC CRE panel), CDC AR Bank 0118",< 16 µg/mL
same,MIC,"E. coli; read-out: Activity (MIC), strain AECO1226, MDR Clinical isolate (CDC CRE panel), CDC AR Bank 0119",< 16 µg/mL
same,MIC,"E. coli; read-out: Activity (MIC), strain AECO1227, MDR Clinical isolate (CDC CRE panel), CDC AR Bank 0128",< 16 µg/mL
same,MIC,"E. coli; read-out: Activity (MIC), strain NECO0003, ΔtolC",< 16 µg/mL
same,MIC,"E. coli; read-out: Activity (MIC), strain NECO0245, ArmA",< 16 µg/mL
same,MIC,"E. coli; strain NECO0001, WT QC, read-out: Activity (MIC)",< 16 µg/mL
same,MIC,"E. coli; strain NECO0002, WT, read-out: Activity (MIC)",< 16 µg/mL
same,MIC,"E. coli; strain NECO0243, empty vector, read-out: Activity (MIC)",< 16 µg/mL
same,MIC,"E. coli; strain NECO0244, AAC(6')-Ib, read-out: Activity (MIC)",< 16 µg/mL
same,MIC,"E. coli; strain NECO0289, APH(3')-Ia, read-out: Activity (MIC)",< 16 µg/mL
same,MIC,"E. coli; strain NECO0302, AAC(3)-IIa, read-out: Activity (MIC)",< 16 µg/mL
same,MIC,"E. coli; strain NECO0350, AAC(2')-I, read-out: Activity (MIC)",< 16 µg/mL
same,MIC,"E. coli; strain NECO0359, ANT(4')-Ia, read-out: Activity (MIC)",< 16 µg/mL
same,MIC,P. mirabilis,< 16 µg/mL
